Test: in vitro
Settings: rat, liver microsomes

SMILES | half-life
O=C(CN1CCNCC1)NC1CCCCC1 [ESAPRAZOLE] | > 60 min
CC(C)(C)CCNC(=O)CN1CCN(C(=O)C2CCCCC2)CC1 | 21 min
O=C(CCN1CCN(C(=O)C2CC2)CC1)NC1CCCCC1 | > 60 min
CCN1CCN(CC(=O)N(C)C2CCCC2)CC1C (racemic) | 21 min
O=C(CCN1C[C@@H]2C[C@H]1CN2)NC1CCCCC1 | 45 min

Second part, the compound after the results:

half-life | SMILES
8.2 min | O=C(CN1CCN2CCC[C@@H]2C1)NC1CCCCC1
4.2 min | O=C(CN1CCN2CCC[C@H]2C1)NC1CCCCC1

Test: in vivo
Settings: rat, brain/plasma, po, 1600 mg/kg

Kp at 2 h | SMILES
0.25 | O=C(CN1CCNCC1)NC1CCCCC1 [ESAPRAZOLE]

Reference: ChEMBL document CHEMBL2390872, “Synthesis and biological evaluation of Esaprazole analogues showing σ1 binding and neuroprotective properties in vitro” (Bioorg Med Chem, 2013)
